Results on 6 compounds are retold here after ChEMBL document CHEMBL3763113, “Discovery of spirocyclic proline tryptophan hydroxylase-1 inhibitors” (Bioorg Med Chem Lett, 2016).

For series [1], the target named is T1, Tryptophan 5-hydroxylase 1 (Homo sapiens, UniProt P17752).
T1 sequence (P17752 whole entry): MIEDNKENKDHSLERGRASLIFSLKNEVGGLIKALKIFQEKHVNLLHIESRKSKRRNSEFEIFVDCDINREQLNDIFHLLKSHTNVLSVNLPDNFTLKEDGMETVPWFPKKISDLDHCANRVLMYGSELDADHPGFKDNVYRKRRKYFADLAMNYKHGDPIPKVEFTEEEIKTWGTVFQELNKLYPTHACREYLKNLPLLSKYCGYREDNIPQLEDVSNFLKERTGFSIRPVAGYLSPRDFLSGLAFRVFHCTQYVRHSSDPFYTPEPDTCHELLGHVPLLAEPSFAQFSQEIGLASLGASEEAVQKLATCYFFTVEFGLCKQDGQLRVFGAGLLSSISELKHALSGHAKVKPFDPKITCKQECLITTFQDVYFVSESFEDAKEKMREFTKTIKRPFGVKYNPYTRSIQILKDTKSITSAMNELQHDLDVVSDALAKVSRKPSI
Description: Inhibition of TPH1 (unknown origin)

The test system of series [2] is Rattus norvegicus. Nature of the series: Decrease in 5-HT levels in rat intestinal mucosa at 30 mg/kg, po bid measured after 16 hrs relative to control. Type of series: functional. Also on record: scale not given: the % may be the effect or the level left.
The test system of series [3] is Rattus norvegicus. Nature of the series: Decrease in 5-HT levels in rat intestinal mucosa at 30 mg/kg, po qd measured after 16 hrs relative to control. Also on record: scale not given: the % may be the effect or the level left. Type of series: functional.
Series [4] in a line: AUC(0 to last) in rat at 25 mg/kg, po. Format: ADME, organism-based. Further details: dose 25 mg/kg, time 0 - last, route oral. As to conditions: in vivo.
Series [5] relates to Rattus norvegicus. Nature of the series: Decrease in 5-HT levels in rat platelet rich plasma at 30 mg/kg, po bid measured after 16 hrs relative to control. Format: functional. Further details: scale not given: the % may be the effect or the level left.
The subject of series [6] is Rattus norvegicus. Nature of the series: AUC(0 to last) in rat assessed as (S)-8-(2-amino-6-((R)-1-(4-chloro-2-(3-methyl-1H-pyrazol-1-yl)phenyl)-2,2,2-trifluoroethoxy)pyrimidin-4-yl)-2,8-diazaspiro[4.5]decane-3-carboxylic acid at 25 mg/kg, po. Further details: dose 25 mg/kg, route oral, time 0 - last. Format: ADME, organism-based. As to conditions: in vivo.
The subject of series [7] is Mus musculus. Description: Decrease in 5-HT levels in mouse at 50 mg/kg, po administered as single dose for 16 hrs. Format: functional.
The nature of series [8]: Volume of distribution at steady state in rat at 1 mg/kg, iv. Format: ADME, organism-based. As to conditions: in vivo, read-out: Vdss.
Series [9] concerns Rattus norvegicus. Description: Decrease in 5-HT levels in rat platelet rich plasma at 30 mg/kg, po qd measured after 16 hrs relative to control. Format: functional. Further details: scale not given: the % may be the effect or the level left.
A short description of series [10]: Clearance in rat at 25 mg/kg, po and 1 mg/kg, iv. Format: ADME, organism-based. Conditions: in vivo.
Series [11] relates to Rattus norvegicus. Nature of the series: Cmax in rat assessed as (S)-8-(2-amino-6-((R)-1-(4-chloro-2-(3-methyl-1H-pyrazol-1-yl)phenyl)-2,2,2-trifluoroethoxy)pyrimidin-4-yl)-2,8-diazaspiro[4.5]decane-3-carboxylic acid at 25 mg/kg, po. Format: ADME, organism-based. Also on record: dose 25 mg/kg, route oral. As to conditions: in vivo.
The nature of series [12]: Half life in rat at 1 mg/kg, iv. Format: ADME, organism-based. Conditions: in vivo.
For series [13], the system named is Rattus norvegicus. Nature of the series: Decrease in 5-HT levels in rat intestinal mucosa at 10 mg/kg, po qd measured after 16 hrs relative to control. Type of series: functional. Also on record: scale not given: the % may be the effect or the level left.
The subject of series [14] is Mus musculus. Nature of the series: Decrease in 5-HT levels in mouse at 10 mg/kg, po administered as single dose for 16 hrs. Format: functional.
Series [15] concerns Rattus norvegicus. Nature of the series: Half life in rat assessed as (S)-8-(2-amino-6-((R)-1-(4-chloro-2-(3-methyl-1H-pyrazol-1-yl)phenyl)-2,2,2-trifluoroethoxy)pyrimidin-4-yl)-2,8-diazaspiro[4.5]decane-3-carboxylic acid at 1 mg/kg, iv. Type of series: ADME, organism-based. Conditions: in vivo.
The nature of series [16]: Cmax in rat at 25 mg/kg, po. As to conditions: in vivo. Further details: dose 25 mg/kg, route oral. Format: ADME, organism-based.
In series [17] the test system is Rattus norvegicus. Nature of the series: Decrease in 5-HT levels in rat platelet rich plasma at 10 mg/kg, po qd measured after 16 hrs relative to control. Also on record: scale not given: the % may be the effect or the level left. Format: functional.

In general, IC50 refers to the concentration needed to halve the response being measured. What is called AUC(0-t) is exposure summed from dosing to a finite time, without extrapolation to infinity. In general, inhibition in vivo refers to the share of the control response that was lost under treatment. One may read the Cmax as the peak of the concentration-time curve. In general, half-life refers to the time in which the quantity being followed falls by half.

For `Cc1ccn(-c2cc(Cl)ccc2[C@@H](Oc2ccnc(N3CCC4(CC3)CNC(C(=O)O)C4)c2)C(F)(F)F)n1` (stereo partly specified), the midpoint of inhibition in [1], the IC50, lay at 0.211 µM.
As to `Cc1ccn(-c2cc(Cl)ccc2[C@@H](Oc2cnc(N3CCC4(CC3)CNC(C(=O)O)C4)cn2)C(F)(F)F)n1` (stereo partly specified), the IC50 in series [1] amounted to 3.42 µM.
On to `Cc1ccn(-c2cc(Cl)ccc2[C@@H](Oc2cnnc(N3CCC4(CC3)CNC(C(=O)O)C4)c2)C(F)(F)F)n1` (stereo partly specified), for which, in series [1], half-maximal inhibition (IC50) required 5.93 µM.
For the compound `Cc1ccn(-c2cc(Cl)ccc2[C@@H](Oc2nc(N)nc(N3CCC4(CC3)CNC(C(=O)O)C4)n2)C(F)(F)F)n1` (stereo partly specified), the IC50 in [1] was determined as 2.27 µM.
Consider `CCOC(=O)[C@@H]1CC2(CCN(c3cc(O[C@H](c4ccc(Cl)cc4-n4ccc(C)n4)C(F)(F)F)nc(N)n3)CC2)CN1`, for which the Activity is 38% in series [2]; 62% in series [3]; 72% in series [5]; 71% in [9]; 76% in [13]; 76% in series [17]. Besides, the AUC(0-t) in [4] worked out at 140 ng·h/mL. For the same compound, the AUClast in series [6] came to 2924 ng·h/mL. Besides, at 50 mg/kg the inhibition in vivo in [7] was 56%. In addition, the Vd in series [8] stood at 3.1 L/kg. In series [10], the clearance was 178 mL/min/kg. For the same compound, the Cmax in series [11] came out at 2253 ng/mL; in [16] it was 249 ng/mL. The compound also had a half-life in [12] of 24 min. Also, testing at 10 mg/kg in [14] gave an inhibition in vivo of 32%. For the same compound, in series [15], the t1/2 came out at 271 min.
In turn, `Cc1ccn(-c2cc(Cl)ccc2[C@@H](Oc2cncc(N3CCC4(CC3)CNC(C(=O)O)C4)n2)C(F)(F)F)n1` (stereo partly specified) yielded an IC50 in series [1] of 20 µM.
